According to US9156816B2 (priority 2010, dated 2015):

Experiments:
Pythium aphanidermatum = assay: Antimicrobial test (mycelia growth inhibition); assay type: cell-based; conditions: compound concentration of 1 ppm, PSY medium, 25° C., days 3 to 7 of culturing, read-out: mycelia growth inhibition rate
Protocol: The compound according to the present invention was dissolved in dimethylsulfoxide and diluted to double the prescribed concentration in a 96-well microplate using PSY medium to obtain a drug solution. On the other hand, a diluted dimethylsulfoxide solution was prepared using PSY medium for use as an untreated group.
A suspension of liquid-cultured test microorganisms (Pythium aphanidermatum) was mixed with an equal volume of the drug solution and cultured in a dark location at 25° C. Mycelia growth was observed on days 3 to 7 of culturing to determine mycelia growth inhibition rates.

Pythium ultimum = assay: Cucumber damping-off (PU) control test; assay type: in vivo; conditions: Globisporangium ultimum, 168 h, soil irrigated with 30 ml emulsion at active ingredient concentration of 100 ppm, ratio of healthy seedlings on day 7 after planting vs untreated group
Protocol: 40 ml of sterile soil were placed in plastic cups followed by leveling the surface of the soil. The soil was then irrigated with 30 ml of the aforementioned emulsion of Preparation Example 2 at an active ingredient concentration of 100 ppm. Following irrigation, cucumbers (variety: Sagami Hanjiro) were planted in the soil and covered with 20 ml of contaminated soil (containing Pythium ultimum) from above. The cups were then placed in plastic bags and allowed to stand undisturbed for 3 days in a constant temperature room at 25° C. (dark location […]). Next, the plants were removed from the bags and held in a constant temperature room at 25° C. using a light-dark cycle of 12 hours. On day 7 after planting, the ratios of healthy seedlings were compared between an untreated group and treated group to calculate control effects (control values).

[1] = test system: tomato late blight pathogen (Phytophthora infestans); assay: whole plant or invertebrate; assay type: in vivo; conditions: 96 h, read-out: control value

Row | Compound | inhibition at 1 ppm (Pythium aphanidermatum) [%] | pest or weed control at 100 ppm (Pythium ultimum) [%] | pest or weed control at 100 µg/mL [1] [%]
1 | Cn1nnnc1/C(=N\OCc1cccc(NC(=O)C2(C)OCCO2)n1)c1ccccc1 [a-5] | ≥ 50 |  | 
2 | COCCCCC(=O)Nc1cccc(CO/N=C(/c2ccccc2)c2nnnn2C)n1 [b-11] |  | ≥ 50 | 
3 | COCCC(C)(C)OC(=O)Nc1cccc(CO/N=C(/c2ccccc2)c2nnnn2C)n1 [d-10] |  | ≥ 50 | ≥ 70
4 | CCOC(CC(=O)Nc1cccc(CO/N=C(/c2ccccc2)c2nnnn2C)n1)OCC [a-6] | ≥ 50 | ≥ 50 | ≥ 70
5 | COCCOC(C)(OCCOC)C(=O)Nc1cccc(CO/N=C(/c2ccccc2)c2nnnn2C)n1 [a-32] |  |  | ≥ 70
6 | CCOC(SCC)C(=O)Nc1cccc(CO/N=C(/c2ccccc2)c2nnnn2C)n1 (stereo not shown) [a-26] | ≥ 50 | ≥ 50 | ≥ 70
7 | COCCCC(C)(C)OC(=O)Nc1cccc(CO/N=C(/c2ccccc2)c2nnnn2C)n1 [d-8] | ≥ 50 | ≥ 50 | ≥ 70
8 | CC1COC(CC(=O)Nc2cccc(CO/N=C(/c3ccccc3)c3nnnn3C)n2)O1 (stereo not shown) [a-10] | ≥ 50 |  | ≥ 70
9 | COC(C)(OC)C(=O)Nc1cccc(CO/N=C(/c2ccccc2)c2nnnn2C)n1 [a-19] | ≥ 50 |  | ≥ 70
10 | CCOCCCOC(=O)Nc1cccc(CO/N=C(/c2ccccc2)c2nnnn2C)n1 [d-15] | ≥ 50 | ≥ 50 | ≥ 70
11 | Cn1nnnc1/C(=N\OCc1cccc(NC(=O)C2OCCO2)n1)c1ccccc1 [a-4] | ≥ 50 | ≥ 50 | ≥ 70
12 | CCOCCC(C)OC(=O)Nc1cccc(CO/N=C(/c2ccccc2)c2nnnn2C)n1 (stereo not drawn) [d-13] | ≥ 50 | ≥ 50 | ≥ 70
13 | Cn1nnnc1/C(=N\OCc1cccc(NC(=O)C2(C)OCCOCCO2)n1)c1ccccc1 [a-28] | ≥ 50 | ≥ 50 | ≥ 70
14 | CC1OC(CC(=O)Nc2cccc(CO/N=C(/c3ccccc3)c3nnnn3C)n2)OC1C (stereo not shown) [a-12] | ≥ 50 |  | ≥ 70
15 | CCCOC(C)(OCCC)C(=O)Nc1cccc(CO/N=C(/c2ccccc2)c2nnnn2C)n1 [a-29] | ≥ 50 | ≥ 50 | ≥ 70
16 | Cn1nnnc1/C(=N\OCc1cccc(NC(=O)C2(C)OCCCCO2)n1)c1ccccc1 [a-25] | ≥ 50 | ≥ 50 | ≥ 70
17 | Cn1nnnc1/C(=N\OCc1cccc(NC(=O)OC2CCC3(CC2)OCCO3)n1)c1ccccc1 [c-5] | ≥ 50 | ≥ 50 | ≥ 70
18 | CCOC(OCC)C(=O)Nc1cccc(CO/N=C(/c2cccc(F)c2)c2nnnn2C)n1 [e-1] | ≥ 50 |  | ≥ 70
19 | Cn1nnnc1/C(=N\OCc1cccc(NC(=O)OCC2CO2)n1)c1ccccc1 (stereo not drawn) [d-5] |  |  | ≥ 70
20 | CCOC(OCC)C(C)(C)C(=O)Nc1cccc(CO/N=C(/c2ccccc2)c2nnnn2C)n1 [a-21] |  | ≥ 50 | ≥ 70
21 | Cn1nnnc1/C(=N\OCc1cccc(NC(=O)OC2(C)CCOCC2)n1)c1ccccc1 [d-6] | ≥ 50 |  | ≥ 70
22 | CCOCC(CCOC(=O)Nc1cccc(CO/N=C(/c2ccccc2)c2nnnn2C)n1)OCC (stereo not drawn) [d-18] | ≥ 50 | ≥ 50 | ≥ 70
23 | Cn1nnnc1/C(=N\OCc1cccc(NC(=O)CC2OCCO2)n1)c1ccccc1 [a-7] | ≥ 50 | ≥ 50 | ≥ 70
24 | Cn1nnnc1/C(=N\OCc1cccc(NC(=O)OCC2(C)COCOC2)n1)c1ccccc1 [c-2] | ≥ 50 |  | ≥ 70
25 | CCOCC(COC(=O)Nc1cccc(CO/N=C(/c2ccccc2)c2nnnn2C)n1)OCC (stereo not drawn) [d-17] | ≥ 50 | ≥ 50 | ≥ 70
26 | CC(C)OC(OC(C)C)C(=O)Nc1cccc(CO/N=C(/c2ccccc2)c2nnnn2C)n1 [a-8] |  | ≥ 50 | ≥ 70
27 | Cn1nnnc1/C(=N\OCc1cccc(NC(=O)OC2(C)CCSCC2)n1)c1ccccc1 [d-7] |  |  | ≥ 70

Row | Compound | inhibition at 1 ppm (Pythium aphanidermatum) [%] | pest or weed control at 100 ppm (Pythium ultimum) [%] | pest or weed control at 100 µg/mL [1] [%]
28 | COC(CC(=O)Nc1cccc(CO/N=C(/c2ccccc2)c2nnnn2C)n1)OC [a-2, (Z)-(1-methyl-1H-tetrazol-5-yl)phenylmethanone-o-[2-(2,2-dimethoxyethanecarbonylamino)pyridin-6-ylmethyl]oxime] | ≥ 50 | ≥ 50 | ≥ 70
29 | CCOC(OCC)C(=O)Nc1cccc(CO/N=C(/c2ccccc2)c2nnnn2C)n1 [a-1] | ≥ 50 | ≥ 50 | ≥ 70
30 | Cn1nnnc1/C(=N\OCc1cccc(NC(=O)OCCC2OCC(C)(C)CO2)n1)c1ccccc1 [c-1] | ≥ 50 | ≥ 50 | ≥ 70
31 | COC(CC(C)(C)OC(=O)Nc1cccc(CO/N=C(/c2ccccc2)c2nnnn2C)n1)OC [c-9] | ≥ 50 | ≥ 50 | ≥ 70
32 | CCOC(COC(=O)Nc1cccc(CO/N=C(/c2ccccc2)c2nnnn2C)n1)OCC [c-10] | ≥ 50 | ≥ 50 | ≥ 70
33 | COCCC(=O)Nc1cccc(CO/N=C(/c2ccccc2)c2nnnn2C)n1 [b-1] | ≥ 50 |  | ≥ 70
34 | CC(C(=O)Nc1cccc(CO/N=C(/c2ccccc2)c2nnnn2C)n1)C1(C)OCCO1 (stereo not shown) [a-13] |  |  | ≥ 70
35 | COCCCOC(=O)Nc1cccc(CO/N=C(/c2ccccc2)c2nnnn2C)n1 [d-12] | ≥ 50 |  | ≥ 70
36 | COCCC(C)OC(=O)Nc1cccc(CO/N=C(/c2ccccc2)c2nnnn2C)n1 (stereo not drawn) [d-14] | ≥ 50 | ≥ 50 | ≥ 70
37 | CC(OC(=O)Nc1cccc(CO/N=C(/c2ccccc2)c2nnnn2C)n1)C1OCCCO1 (stereo not shown) [c-11] | ≥ 50 |  | ≥ 70
38 | Cn1nnnc1/C(=N\OCc1cccc(NC(=O)C2(C)OCCCCCO2)n1)c1ccccc1 [a-27] | ≥ 50 | ≥ 50 | ≥ 70
39 | CCOCC(C)(COCC)C(=O)Nc1cccc(CO/N=C(/c2ccccc2)c2nnnn2C)n1 [b-5] | ≥ 50 |  | 
40 | Cn1nnnc1/C(=N\OCc1cccc(NC(=O)CC2OCC(C)(C)CO2)n1)c1ccccc1 [a-15] | ≥ 50 |  | ≥ 70
41 | Cn1nnnc1/C(=N\OCc1cccc(NC(=O)CC2(C)OCCO2)n1)c1ccccc1 [a-16] |  |  | ≥ 70
42 | COC(C)C(=O)Nc1cccc(CO/N=C(/c2ccccc2)c2nnnn2C)n1 (stereo not shown) [b-4] | ≥ 50 |  | 
43 | COCCC(C)C(=O)Nc1cccc(CO/N=C(/c2ccccc2)c2nnnn2C)n1 (stereo not shown) [b-9] |  | ≥ 50 | 
44 | Cn1nnnc1/C(=N\OCc1cccc(NC(=O)OC(C)(C)C2OCCCO2)n1)c1ccccc1 [c-12] | ≥ 50 |  | ≥ 70
45 | CCOC(OCC)C(=O)Nc1ccc(Cl)c(CO/N=C(/c2ccccc2)c2nnnn2C)n1 [e-3] | ≥ 50 |  | ≥ 70
46 | CCOC(C)(OCC)C(=O)Nc1cccc(CO/N=C(/c2ccccc2)c2nnnn2C)n1 [a-18] |  | ≥ 50 | ≥ 70
47 | Cn1nnnc1/C(=N\OCc1cccc(NC(=O)C2(C)OCCCO2)n1)c1ccccc1 [a-24, (Z)-(1-methyl-1H-tetrazol-5-yl)phenylmethanone-o-[2-(2-methyl-1,3-dioxan-2-yl-carbonylamino)pyridin-6-ylmethyl]oxime] | ≥ 50 |  | ≥ 70
48 | COCCCCOC(=O)Nc1cccc(CO/N=C(/c2ccccc2)c2nnnn2C)n1 [d-11] | ≥ 50 |  | ≥ 70
49 | CCOC(OCC)C(=O)Nc1cccc(CO/N=C(/c2ccc(F)c(C)c2)c2nnnn2C)n1 [e-2] | ≥ 50 |  | ≥ 70
50 | CCOCCCC(C)(C)OC(=O)Nc1cccc(CO/N=C(/c2ccccc2)c2nnnn2C)n1 [d-9] | ≥ 50 |  | ≥ 70
51 | Cn1nnnc1/C(=N\OCc1cccc(NC(=O)OCC2(C)COC(C)(C)OC2)n1)c1ccccc1 [c-3] | ≥ 50 |  | ≥ 70
52 | CCOC1(OC(=O)Nc2cccc(CO/N=C(/c3ccccc3)c3nnnn3C)n2)CC1 [d-2] |  |  | ≥ 70
53 | CCC1COC(CC(=O)Nc2cccc(CO/N=C(/c3ccccc3)c3nnnn3C)n2)O1 (stereo not shown) [a-11] | ≥ 50 |  | ≥ 70
